In patent US9481910B2, “Methods and compositions for the detection of drug resistant BRAF isoforms” (MEMORIAL SLOAN-KETTERING CANCER CENTER, priority 2011, dated 2016):
Entries after “also recorded” stand apart in the source; their conditions may differ.

What was measured:
BRAF(V600E/R509H) = BRAF(V600E/R509H) (Homo sapiens, UniProt P15056, R509H/V600E); assay: ERK signaling in 293H cells expressing the dimerization mutant BRAF(V600E/R509H); format: cell-based; conditions: 2 μM for 1 hour
Experimental: (§1) The BRAF inhibitor, PLX403219 (vemurafenib) was obtained from Plexxikon Inc. PD0325901 was synthesized in the MSKCC Organic Synthesis Core Facility. Flag-tagged BRAF constructs have been described previously4. All other plasmids were created using standard cloning methods, with pcDNA3.1 (Invitrogen) as a vector. Mutations were introduced using the site-directed Mutagenesis Kit (Stratagene). For transfection studies, cells were seeded on 35 mm or 100 mm plates and transfected the following day using Lipofectamine 2000 (Invitrogen). Cells were collected 24 hours later for subsequent analysis. cDNA Preparation and PCR.

[1] = tested on: HT-29 cells (colorectal; BRAF(V600E)) expressing HER2 (V654E); assay: MEK/ERK in HT-29 cells transfected with activated HER2 (V654E); format: cell-based; conditions: various concentrations, 1 h
[2] = tested on: HT-29 cells (colorectal; BRAF(V600E)) expressing NRAS(G12V); assay: MEK/ERK in HT-29 cells transfected with HA-tagged NRAS(G12V); format: cell-based; conditions: various concentrations, 1 h
[3] = tested on: wild-type (+/+), BRAF−/− or CRAF−/− MEFs; assay: MEK/ERK activation in wild-type, BRAF knockout or CRAF knockout MEFs; format: cell-based; conditions: indicated concentrations, 1 h
p61 BRAF(V600E/R509H) = p61 BRAF(V600E/R509H) (Homo sapiens, UniProt P15056, DEL169-380/R509H/V600E); assay: ERK signaling in 293H cells expressing p61 BRAF(V600E/R509H); format: cell-based; conditions: 2 μM for 1 hour
Chain of p61 BRAF(V600E/R509H) (P15056 with tags, fused parts or gaps DEL169-380/R509H/V600E): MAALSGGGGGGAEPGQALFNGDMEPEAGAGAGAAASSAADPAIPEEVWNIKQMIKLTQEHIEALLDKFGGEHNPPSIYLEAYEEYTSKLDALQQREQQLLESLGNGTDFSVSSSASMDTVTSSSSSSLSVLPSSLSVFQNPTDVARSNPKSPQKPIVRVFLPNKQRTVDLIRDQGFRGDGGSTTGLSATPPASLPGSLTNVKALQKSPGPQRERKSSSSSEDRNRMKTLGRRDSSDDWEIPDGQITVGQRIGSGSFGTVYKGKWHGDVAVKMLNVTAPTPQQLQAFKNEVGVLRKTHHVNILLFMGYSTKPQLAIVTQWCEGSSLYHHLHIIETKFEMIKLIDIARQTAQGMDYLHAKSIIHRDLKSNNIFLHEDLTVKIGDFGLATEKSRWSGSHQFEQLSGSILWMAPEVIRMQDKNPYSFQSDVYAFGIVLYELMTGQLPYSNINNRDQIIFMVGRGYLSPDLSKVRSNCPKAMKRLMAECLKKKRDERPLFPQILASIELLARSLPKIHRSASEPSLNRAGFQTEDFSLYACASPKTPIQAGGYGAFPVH
Experimental: as §1

p61 BRAF(V600E) [4] = target: T1, p61 BRAF(V600E) (Homo sapiens, UniProt P15056, DEL169-380/V600E); assay: In vitro kinase assay of immunoprecipitated V5-tagged p61 BRAF(V600E), inactive MEK(K97R) as substrate; format: biochemical; conditions: 200 μM ATP, 30° C., 20 min
T1 sequence (P15056 with tags, fused parts or gaps DEL169-380/V600E): as the sequence (P15056 with tags, fused parts or gaps DEL169-380/R509H/V600E) above, with H297R counted along it
Experimental: V5-tagged full length BRAF(V600E) or V5-tagged p61 BRAF(V600E) were ectopically expressed in 293H cells. 24 hours later, cells were harvested, lysed and BRAF was immunoprecipitated using a V5 antibody. […] Kinase activity was estimated by western blot for pMEK.
Immunoprecipitations and kinase assays. Cells were lysed in lysis buffer (50 mM Tris, pH7.5, 1% NP40, 150 mM NaCl, 10% glycerol, 1 mM EDTA) supplemented with protease and phosphatase inhibitor cocktail tablets (Roche). Immunoprecipitations were performed at 4° C. for 4 h, followed by three washes with lysis buffer and, in cases of subsequent kinase assay, one final wash with kinase buffer (25 mM Tris, pH 7.5, 10 mM MgCl2). […] The kinase reaction was terminated by adding sample buffer and boiling. Kinase activity was determined by immunoblotting for pMEK.

[5] = tested on: ERK signaling (pMEK, pERK); assay: ERK signaling (pMEK/pERK Western blot) in SKMEL-239 parental cells and PLX4032-resistant clones
Experimental: Western blotting and receptor tyrosine kinase (RTK) arrays. Western blot analysis was performed as previously described13. The following antibodies were used: p217/p221-MEK (pMEK), p202/p204-ERK (pERK), MEK, ERK, (Cell Signaling), V5 tag (Invitrogen), BRAF, cyclin Flag tag, β-actin (Sigma).

p61 BRAF(V600E) [6] = target: T1, p61 BRAF(V600E); assay: ERK signaling in 293H cells ectopically expressing p61 BRAF(V600E); format: cell-based; conditions: 293H cells expressing p61 BRAF(V600E), 2 μM for 1 hour
Experimental: as §1

p61 BRAF(V600E) [7] = target: T1, p61 BRAF(V600E); assay: ERK signaling in SKMEL-239 or HT-29 cells ectopically expressing p61 BRAF(V600E); format: cell-based; conditions: 1 hour
Experimental: as §1

SKMEL-239 cells = assay: Cell cycle and cell death (sub-G1 peak by FACS) in SKMEL-239 parental cells and resistant clones; format: cell-based, human
Experimental: (§2) For proliferation assays, cells were plated in 6-well plates, and 24 hours later were treated with varying concentrations of inhibitors, or vehicle control, as indicated. IC50 values were calculated using Graph Pad Prism v.5. For cell cycle and apoptosis studies, cells were seeded in 6-well dishes the day prior to drug treatment. For analysis, both adherent and floating cells were harvested and stained with ethidium bromide as described previously 21.

[8] = tested on: PLX4032-resistant SKMEL-239 clones; assay: Sensitivity of PLX4032-resistant SKMEL-239 clones to MEK inhibitor (5-day proliferation, pMEK/pERK dose-response); format: cell-based, human; conditions: all five resistant clones; slightly higher doses than in the parental cell line
Experimental: as §2

[9] = parental SKMEL-239, 2 μM PLX4032

Chain of BRAF(V600E/R509H) (P15056 whole entry R509H/V600E): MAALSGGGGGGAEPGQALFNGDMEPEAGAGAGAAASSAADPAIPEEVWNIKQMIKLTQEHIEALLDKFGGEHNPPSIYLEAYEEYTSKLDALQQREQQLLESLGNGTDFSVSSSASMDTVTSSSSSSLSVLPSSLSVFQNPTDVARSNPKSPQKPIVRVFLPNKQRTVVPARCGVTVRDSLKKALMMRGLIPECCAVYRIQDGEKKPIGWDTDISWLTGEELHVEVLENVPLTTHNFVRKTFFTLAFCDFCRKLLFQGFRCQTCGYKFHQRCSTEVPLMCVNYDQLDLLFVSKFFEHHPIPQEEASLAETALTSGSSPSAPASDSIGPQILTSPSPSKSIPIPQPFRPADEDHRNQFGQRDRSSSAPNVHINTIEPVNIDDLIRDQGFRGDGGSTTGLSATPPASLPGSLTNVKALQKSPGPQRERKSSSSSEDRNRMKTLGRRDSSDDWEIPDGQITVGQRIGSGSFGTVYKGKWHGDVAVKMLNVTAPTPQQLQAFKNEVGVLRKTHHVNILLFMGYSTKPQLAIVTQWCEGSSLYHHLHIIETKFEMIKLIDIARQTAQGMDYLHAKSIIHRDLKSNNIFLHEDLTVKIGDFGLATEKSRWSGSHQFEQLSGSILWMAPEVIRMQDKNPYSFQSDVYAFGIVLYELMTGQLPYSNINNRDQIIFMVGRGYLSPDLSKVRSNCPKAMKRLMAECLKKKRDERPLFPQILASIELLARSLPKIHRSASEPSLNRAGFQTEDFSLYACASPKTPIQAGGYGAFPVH

For `CCCS(=O)(=O)Nc1ccc(F)c(C(=O)c2c[nH]c3ncc(-c4ccc(Cl)cc4)cc23)c1F` [PLX4032], the “sensitivity of ERK signaling” value (BRAF(V600E/R509H)) was “remained sensitive”, the “sensitivity of MEK/ERK to RAF inhibitor” value [1] was “insensitive” and the “sensitivity of MEK/ERK to RAF inhibitor” value [2] was “insensitive”. The MEK/ERK activation [3] was “MEK/ERK activation does not require BRAF”, the “inhibition of ERK signaling” value (p61 BRAF(V600E/R509H)) was “inhibited” and the “inhibition of kinase activity in vitro (pMEK Western blot)” value (p61 BRAF(V600E) [4]) was “can be inhibited in vitro”. The “sensitivity of ERK signaling to the drug” value ([5]; PLX4032-resistant SKMEL-239 cells) was “decreased sensitivity”, the “IC50 for pMEK inhibition relative to the parental cell line” value ([5]; SKMEL-239 C3 clone, 1 hour) was “more than 100 fold” and the “pMEK IC50 relative to the parental clone” value ([5]; SKMEL-239 C5 clone, 1 hour) was 4.5 fold. For the same molecule, the “inhibition of ERK signaling” value [5, 9] was “effectively inhibits ERK signaling”, the “sensitivity of ERK signaling (pMEK, pERK)” value (p61 BRAF(V600E) [6]) was “resistant; also recorded: insensitive” and the “inhibition of ERK signaling” value (p61 BRAF(V600E) [7]; HT-29 cells expressing p61 BRAF(V600E)) was “failure of PLX4032 to effectively inhibit ERK signaling”. The “inhibition of ERK signaling” value (p61 BRAF(V600E) [7]; parental SKMEL-239 cells expressing p61 BRAF(V600E)) was “failure of PLX4032 to effectively inhibit ERK signaling”, the “cell death (sub-G1 peak by FACS)” value (SKMEL-239 cells; five PLX4032-resistant SKMEL-239 clones) was “not in the five resistant clones” and the cell cycle effect (SKMEL-239 cells; [9]) was “accumulation of cells in G1”. For the same molecule, the “cell death (sub-G1 peak by FACS)” value (SKMEL-239 cells; parental SKMEL-239 cells) was “significant induction of cell death; also recorded: induced cell death”.

For `O=C(NOC[C@H](O)CO)c1ccc(F)c(F)c1Nc1ccc(I)cc1F` [PD032590113], the “sensitivity to the MEK inhibitor” value [8] was “retained sensitivity”.
